Reference: paper PMC6792352, “Limited Chemical Structural Diversity Found to Modulate Thyroid Hormone Receptor in the Tox21 Chemical Library” (Environmental Health Perspectives, 2019)
Counter-ions that a name gives are not always drawn.

assay: in vitro; settings: rat, gh3-tre-luc cells, AC50 (uM) modified / 1000

SMILES | CC50 at 24 h [µM]
C/C=C/CC#N [3-Pentenenitrile] | > 90
FC1(F)C(F)(F)C(F)(F)C2(F)C(F)(C1(F)F)C(F)(F)C(F)(F)C1(F)C(F)(F)C(F)(F)C(F)(F)C(F)(F)C12F (centres unmarked) [Tetracosafluorotetradecahydrophenanthrene] | > 80
CN(C/C=C/c1ccccc1)Cc1cccc2ccccc12 [Naftifine hydrochloride] | 25
O=S1(=O)OC(c2cc(Br)c(O)c(Br)c2)(c2cc(Br)c(O)c(Br)c2)c2ccccc21 [Bromophenol blue] | 63.9
N#Cc1cc(I)c(O)c(I)c1 [Ioxynil] | 49.1
CCCCC1CCC(O)CC1 (centres unmarked) [4-Butylcyclohexanol] | > 90
Cc1cc(-n2c(=O)[nH]c(=O)n(C)c2=O)ccc1Oc1ccc(S(=O)(=O)C(F)(F)F)cc1 [Toltrazuril sulfone] | > 50
O=C1c2ccccc2C(=O)N1CCc1noc(-c2ccc(CN3CCCCCC3)s2)n1 [PharmaGSID_48172] | > 80
CC(C)O [Isopropanol] | > 100
CC1(C)C(/C=C(\Cl)C(F)(F)F)C1C(=O)OC(C#N)c1cccc(Oc2ccccc2)c1 (stereo not drawn) [alpha-Cyhalothrin] | > 90
CN1[C@@H]2CC[C@H]1C[C@@H](OC(=O)c1cc(Cl)cc(Cl)c1)C2 [MDL 72222] | 35.2
CCCCCCCCC [Nonane] | > 90
CCOC(=O)CC(=O)OCC [Diethyl propanedioate] | > 90
C=C(C)C(=O)OCCC[Si](OC)(OC)OC [3-(Trimethoxysilyl)propyl methacrylate] | > 90
Cc1cc(=O)c2c(O)c3c(O)cc(=O)c4c3c3c(cc(O)c1c23)C(C)(C)C=4O [Geliomycin] | 0.889
CC(C)OC(=O)CCC(=O)OC(C)C [Dipropan-2-yl butanedioate] | > 90
O=C(O)c1cc(Oc2ccc(C(F)(F)F)cc2Cl)ccc1[N+](=O)[O-] [Acifluorfen-sodium] | > 90
O=C(NC(=O)c1c(F)cccc1F)Nc1ccc(Oc2ccc(C(F)(F)F)cc2Cl)cc1F [Flufenoxuron] | 34.6
CCN(CC)c1ccc(C(=C2C=CC(=[N+](CC)CC)C=C2)c2ccccc2)cc1 [Brilliant Green] | 0.384
CC(CCl)OC(C)CCl (centres unmarked) [bis(2-Chloro-1-methylethyl) ether] | > 90
CCCCCCCC(=O)OCC(COC(=O)CCCCCCC)OC(=O)CCCCCCC [Tricaprylin] | > 90
C=CCCCCCCCCC(=O)OC [Methyl 10-undecenoate] | > 50
O=C(O)C(F)(F)C(F)(F)C(F)(F)C(F)(F)C(F)(F)C(F)(F)C(F)(F)C(F)(F)F [Perfluorononanoic acid] | > 90

SMILES | CC50 at 24 h [µM]
CC(C)c1cc2c(cc1S(=O)(=O)O)[C@@]1(C)CCC[C@@](C)(C(=O)O)[C@@H]1CC2 [Ecabet] | > 50
NC(=O)Oc1ccc(Cc2ccccc2)cc1 [Diphenan] | > 50
CN[C@H]1CC[C@@H](c2ccc(Cl)c(Cl)c2)c2ccccc21 [Sertraline hydrochloride] | 7.85
c1ccc(/N=N/c2ccccc2)cc1 [Azobenzene] | > 90
CCCCCCCCCCCCCCCCN [Hexadecylamine] | > 50
O=P(O)(OCc1ccccc1)OCc1ccccc1 [Dibenzyl phosphate] | > 90
Cc1cccc(NC(=S)N(C)C)c1 [Methiuron] | > 90
CCc1ccc(CCOc2ccc(CC3SC(=O)NC3=O)cc2)nc1 (centres unmarked) [Pioglitazone hydrochloride] | > 90
O=C1c2c(O)cccc2[C@H]([C@@H]2O[C@H](CO)[C@@H](O)[C@H](O)[C@H]2O)c2cc(CO)cc(O)c21 [Aloin A] | > 50
CC(=O)OCC(=O)[C@@]1(O)[C@H](C)C[C@H]2[C@@H]3C[C@H](F)C4=CC(=O)C=C[C@]4(C)[C@H]3[C@@H](O)C[C@@]21C [Paramethasone acetate] | > 50
CN(CC1(C)CCCO1)S(=O)(=O)c1ccc(Cl)c(S(N)(=O)=O)c1 (centres unmarked) [Mefruside] | > 50
COc1cc2c(cc1OC)C(C(C(=O)N(CCc1ccc(OC)c(OC)c1OC)CCc1ccc(OC)c(OC)c1OC)c1ccccc1)=NCC2 (centres unmarked) [Pinokalant hydrochloride] | 21.9
CCCCCCCCCCCCCC=O [Tetradecanal] | > 5
O=C(O[C@H]1CN2CCC1CC2)N1CCc2ccccc2[C@@H]1c1ccccc1 [Solifenacin hydrochloride] | 19.6
C/C(=N\O)c1ccc(OCC(=O)N2CCCCC2)cc1 [Pifoxime] | > 50
CCOc1ccc2ccccc2c1C(=O)N[C@@H]1C(=O)N2[C@@H]1SC(C)(C)[C@@H]2C(=O)O [Nafcillin sodium monohydrate] | > 20
CC[C@@H](NC(C)C)[C@@H](O)c1ccc(O)c2[nH]c(=O)ccc12 [Procaterol] | > 50
Oc1cc(O)c2c(c1)O[C@H](c1ccc(O)c(O)c1)[C@H](O)C2 [(-)-Epicatechin] | > 50
Cc1cc(C)c(N)c(Cl)c1 [2-Chloro-4,6-dimethylaniline] | > 90
CC1(C)C[C@@H]1C(=O)N/C(=C\CCCCSC[C@H](N)C(=O)O)C(=O)O [Cilastatin sodium] | > 50
CC[C@@]1(O)C(=O)OCc2c1cc1n(c2=O)Cc2cc3c([N+](=O)[O-])cccc3nc2-1 [Rubitecan] | 1.34
CS(=O)(=O)c1ccc(C(=O)C2C(=O)CCCC2=O)c(Cl)c1COCC(F)(F)F [Tembotrione] | > 90
CCc1ncnc2cc(OC)c(OC)cc12 [Quazodine] | > 50

SMILES | CC50 at 24 h [µM]
CC(C)[C@H](C(=O)O[C@H](C#N)c1cccc(Oc2ccccc2)c1)c1ccc(Cl)cc1 [Esfenvalerate] | > 90
C=CC(=O)NC(C)C [N-Isopropylacrylamide] | > 90
CC(C)CCO [Isopentyl alcohol] | > 90
Cc1ccc(C)cc1 [p-Xylene] | > 90
CC1(C)S[C@@H]2[C@H](NC(=O)[C@H](N)c3ccc(O)cc3)C(=O)N2[C@H]1C(=O)O [Amoxicillin] | > 50
CCCCCCCCCCCC(=O)N(CCO)CCO [N,N-Bis(2-hydroxyethyl)dodecanamide] | 42.5
CC(C=O)Cc1ccc(C(C)C)cc1 (centres unmarked) [Cyclamen aldehyde] | > 90
COc1ccc(N=[N+]([O-])c2ccc(OC)cc2)cc1 [4-Azoxyanisole] | > 90
c1cc(C(c2ccc(OCC3CO3)cc2)c2ccc(OCC3CO3)cc2)ccc1OCC1CO1 (centres unmarked) [2,2',2''-[Methanetriyltris(benzene-4,1-diyloxymethanediyl)]trioxirane] | 19.4
CCc1oc2ccccc2c1C(=O)c1cc(Br)c(O)c(Br)c1 [Benzbromarone] | 39.4
c1ccc2[nH]ccc2c1 [Indole] | > 90
Nc1cccc(S(=O)(=O)O)c1 [3-Aminobenzenesulfonic acid] | > 90
FC(F)(F)c1cccc(C2=CCN(CCc3ccc4ccncc4c3)CC2)c1 [SSR150106] | 76.9
Cc1nnc(NS(=O)(=O)c2ccc(N)cc2)s1 [Sulfamethizole] | > 50
O=Cc1cc(O)ccc1Br [2-Bromo-5-hydroxy-benzaldehyde] | > 90
CN(CCCN1c2ccccc2CCc2ccccc21)CC(=O)c1ccc(Cl)cc1 [Lofepramine hydrochloride] | 22
COc1cccc(OC)c1C(=O)N[C@@H]1C(=O)N2[C@@H]1SC(C)(C)[C@@H]2C(=O)O [Methicillin sodium hydrate] | > 50
CCOC(=O)C(C)O (centres unmarked) [Ethyl lactate] | > 90
CN(C)CCCN1c2ccccc2C(C)(C)c2ccccc21 [Dimetacrine] | 14.8
C=CCSCC1Nc2cc(Cl)c(S(N)(=O)=O)cc2S(=O)(=O)N1 (centres unmarked) [Althiazide] | > 50
CC1(C)O[C@@H]2C[C@H]3[C@@H]4C[C@H](F)C5=CC(=O)C=C[C@]5(C)[C@@]4(F)[C@@H](O)C[C@]3(C)[C@]2(C(=O)CO)O1 [Fluocinolone acetonide] | > 50

same assay, conditions: rat, gh3-tre-luc cells, AC50 (uM) modified / 1000, Tox21_110001=Tox21_111708; viability, 1 nM T3 present, 24 h

SMILES | CC50 at 24 h [µM]
OC[C@@H](O)[C@H]1O[C@@H]2O[C@H](C(Cl)(Cl)Cl)O[C@@H]2[C@H]1O [Chloralose] | > 50

same assay, conditions: rat, gh3-tre-luc cells, AC50 (uM) modified / 1000, Tox21_110001=Tox21_112824; viability, 1 nM T3 present, 24 h

SMILES | CC50 at 24 h [µM]
COc1ccc2c3c1O[C@H]1[C@@H](O)C=C[C@H]4[C@@H](C2)NCC[C@@]341 [N-Norcodeine hydrochloride] | > 100

same assay, conditions: rat, gh3-tre-luc cells, AC50 (uM) modified / 1000, Tox21_110001=Tox21_200801; viability, 1 nM T3 present, 24 h

SMILES | CC50 at 24 h [µM]
C=CCBr [Allyl bromide] | > 100

same assay, conditions: rat, gh3-tre-luc cells, AC50 (uM) modified / 1000, Tox21_110001=Tox21_201447; viability, 1 nM T3 present, 24 h

SMILES | CC50 at 24 h [µM]
OC[C@@H](O)[C@H]1O[C@@H]2O[C@H](C(Cl)(Cl)Cl)O[C@@H]2[C@H]1O [Chloralose] | > 90

same assay, conditions: rat, gh3-tre-luc cells, AC50 (uM) modified / 1000, Tox21_110001=Tox21_201906; viability, 1 nM T3 present, 24 h

SMILES | CC50 at 24 h [µM]
Nc1ccc(-c2ccc(N)c(Cl)c2)cc1Cl [3,3'-Dichlorobenzidine dihydrochloride] | 76.5

same assay, conditions: rat, gh3-tre-luc cells, AC50 (uM) modified / 1000, Tox21_110001=Tox21_202438; viability, 1 nM T3 present, 24 h

SMILES | CC50 at 24 h [µM]
O=[N+]([O-])c1ccc(Oc2ccc(Cl)cc2Cl)cc1 [Nitrofen] | > 90

same assay, conditions: rat, gh3-tre-luc cells, AC50 (uM) modified / 1000, Tox21_110001=Tox21_300043; viability, 1 nM T3 present, 24 h

SMILES | CC50 at 24 h [µM]
OCCCl [2-Chloroethanol] | > 90

same assay, conditions: rat, gh3-tre-luc cells, AC50 (uM) modified / 1000, Tox21_110001=Tox21_301203; viability, 1 nM T3 present, 24 h

SMILES | CC50 at 24 h [µM]
C=CCc1ccc(OC(=O)Cc2ccccc2)c(OC)c1 [Eugenyl phenylacetate] | > 90

same assay, conditions: rat, gh3-tre-luc cells, AC50 (uM) modified / 1000, Tox21_110001=Tox21_302894; viability, 1 nM T3 present, 24 h

SMILES | CC50 at 24 h [µM]
Nc1ccc(-c2ccc(N)c(Cl)c2)cc1Cl [3,3'-Dichlorobenzidine dihydrochloride] | 20.3

same assay, conditions: rat, gh3-tre-luc cells, AC50 (uM) modified / 1000, Tox21_110001=Tox21_400083; viability, 1 nM T3 present, 24 h

SMILES | CC50 at 24 h [µM]
O=S(=O)(O)C(F)(F)C(F)(F)C(F)(F)C(F)(F)C(F)(F)C(F)(F)C(F)(F)C(F)(F)F [Perfluorooctanesulfonic acid] | > 90
